Laboratory results published in patent US20220372014A1, “NEUROPROTECTIVE COMPOUNDS AND METHODS OF USE THEREOF” (The Johns Hopkins University, priority 2019, published 2022).

Columns and labels:
[1] = test system: HeLa cells or neuronal cells; test: Cell death assay of Example 3 (MNNG, alamarBlue; protection against parthanatos, Table 4); assay type: cell-based; details: 1 μM test compound, MNNG-induced cell death, alamarBlue
Experimental: Cell death assay: 200 μl of cells (HeLa cells or neuronal cells) culture (1×10^4 cells/well) were plated into the wells of a sterile 96-well cell culture plate. The cells were incubated for 18 hours at 37° C. The medium was removed and changed with 100 μl/well of 1 μM test compound. Incubate for 1 hours at 37° C. Ten μl of 500 μM MNNG (N-Methyl-N′-nitro-N-nitrosoguanidine) was added to each well. The medium was aspirated well and incubated for 15 min at 37° C. The cells were washed with the fresh medium. The medium was changed with 1 μM of test compound and incubated for 18 hours at 37° C. 10 μl/well of alamarBlue reagent was added directly to the well and incubated for 1 to 4 hours at 37° C. Fluorescence was measured using a fluorescence excitation wavelength of 560 nm and emission at 590 nm. The percentage of cell death was determined as the ratio of live to dead cells compared with the percentage of cell death in control wells to account for cell death attributed to mechanical stimulation of the cultures.

MIF = target: T1, MIF (Homo sapiens, UniProt P14174); test: Nuclease assay of Example 3 (MIF inhibitory activity, Table 4); assay type: biochemical; parameters: (%) inhibition of MIF nuclease activity: concentration or dose not given beside the values; details: nuclease assay of Example 3
T1 sequence (P14174 1-115): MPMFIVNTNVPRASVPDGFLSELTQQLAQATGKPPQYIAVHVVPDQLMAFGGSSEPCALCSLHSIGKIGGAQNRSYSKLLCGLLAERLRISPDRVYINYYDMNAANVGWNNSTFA
Experimental: A rapafucin library was synthesized as described in WO2017/136708 and Guo et al. (2018) Nat. Chem. 11:254-63. The hybrid macrocyclic library consisted of 45,000 compounds in pools of 15 individual compounds. The library compounds were screened for MIF inhibitory activity using a nuclease assay as detailed in FIG. 1 and below.
Nuclease assay: Human genomic DNA (200 ng/reaction, Promega), pcDNA (200 ng/reaction) or PS^30 and its related and non-related substrates (1 μM) was incubated with wild type MIF or its variants at a final concentration of 0.25-8 μM as indicated in 10 mM Tris-HCl buffer (pH 7.0) containing 10 mM MgCl2 and 1 mM DTT or specific buffer as indicated, for 1 h (with pcDNA and small DNA substrates) or 4 h (with human genomic DNA) at 37° C. The reaction was terminated with loading buffer containing 10 mM EDTA and incubation on ice. The human genomic DNA samples were immediately separated on a 1.2% pulse field certified agarose in 0.5×TBE buffer with initial switch time of 1.5 s and a final switch time of 3.5 s for 12 h at 6 V/cm. pcDNA samples were determined by 1% agarose gel. Small DNA substrates were separated on 15% or 25% TBE-urea polyacrylamide (PAGE) gel or 20% TBE PAGE gel. Then gel was stained with 0.5 μg/ml Ethidium Bromide (EtBr) followed by electrophoretic transfer to nylon membrane. Then, Biotin-labeled DNA is further detected by chemiluminescence using Chemiluminescent Nucleic Acid Detection Module (Thermo Scientific).
Structure-activity relationship (SAR) analysis was then conducted on the compounds identified as having MIF inhibitory activity. Compounds having the structure of Formula (I) were then synthesized as shown in Example 1 and tested for MIF inhibitory activity using the nuclease assay described herein and neuronal protection via a cell death assay as detailed below.

(%) inhibition of MIF nuclease activity (MIF)	Structure (SMILES)	(%) inhibition of cell death [1]
25.3%	COc1ccc(CC[C@H]2OC(=O)[C@@H]3CCCCN3C(=O)C(=O)C(C)(C)COC(=O)C=CCCN(C)C(=O)CNC(=O)[C@H](COC(C)(C)C)N(C)C(=O)[C@@H](CC(C)C)NC(=O)CN(C)C(=O)COc3cccc2c3)cc1OC [compound 1]	43.6%
15.3%	COc1ccc(CC[C@H]2OC(=O)[C@@H]3CCCCN3C(=O)C(=O)C(C)(C)COC(=O)C=CCCN(C)C(=O)[C@H](C)NC(=O)[C@H](COC(C)(C)C)N(C)C(=O)[C@@H](CC(C)C)NC(=O)CN(C)C(=O)COc3cccc2c3)cc1OC [compound 2]	41.1%
21.0%	COc1ccc(CC[C@H]2OC(=O)[C@@H]3CCCCN3C(=O)C(=O)C(C)(C)COC(=O)C=CCCN(C)C(=O)[C@@H](C)NC(=O)[C@H](COC(C)(C)C)N(C)C(=O)[C@@H](CC(C)C)NC(=O)CN(C)C(=O)COc3cccc2c3)cc1OC [compound 3]	40.6%
10.8%	CCC[C@@H]1NC(=O)[C@H](COC(C)(C)C)N(C)C(=O)[C@@H](CC(C)C)NC(=O)CN(C)C(=O)COc2cccc(c2)[C@@H](CCc2ccc(OC)c(OC)c2)OC(=O)[C@@H]2CCCCN2C(=O)C(=O)C(C)(C)COC(=O)C=CCCN(C)C1=O [compound 4]	39.7%
10.7%	COCC[C@@H]1NC(=O)[C@H](COC(C)(C)C)N(C)C(=O)[C@@H](CC(C)C)NC(=O)CN(C)C(=O)COc2cccc(c2)[C@@H](CCc2ccc(OC)c(OC)c2)OC(=O)[C@@H]2CCCCN2C(=O)C(=O)C(C)(C)COC(=O)C=CCCN(C)C1=O [compound 5]	41.7%
30.8%	COc1ccc(CC[C@H]2OC(=O)[C@@H]3CCCCN3C(=O)C(=O)C(C)(C)COC(=O)C=CCCN(C)C(=O)[C@H](CC(C)C)NC(=O)[C@H](COC(C)(C)C)N(C)C(=O)[C@@H](CC(C)C)NC(=O)CN(C)C(=O)COc3cccc2c3)cc1OC [compound 6]	46.5%
30.1%	COc1ccc(CC[C@H]2OC(=O)[C@@H]3CCCCN3C(=O)C(=O)C(C)(C)COC(=O)C=CCCN(C)C(=O)[C@@H](CC(C)C)NC(=O)[C@H](COC(C)(C)C)N(C)C(=O)[C@@H](CC(C)C)NC(=O)CN(C)C(=O)COc3cccc2c3)cc1OC [compound 7]	54.5%
28.9%	COc1ccc(CC[C@H]2OC(=O)[C@@H]3CCCCN3C(=O)C(=O)C(C)(C)COC(=O)C=CCCN(C)C(=O)[C@H](CC3CCCCC3)NC(=O)[C@H](COC(C)(C)C)N(C)C(=O)[C@@H](CC(C)C)NC(=O)CN(C)C(=O)COc3cccc2c3)cc1OC [compound 12]	52.0%
11.2%	COc1ccc(CC[C@H]2OC(=O)[C@@H]3CCCCN3C(=O)C(=O)C(C)(C)COC(=O)C=CCCN(C)C(=O)[C@H](C(C)C)NC(=O)[C@H](COC(C)(C)C)N(C)C(=O)[C@@H](CC(C)C)NC(=O)CN(C)C(=O)COc3cccc2c3)cc1OC [compound 14]	41.6%

Second part, the molecule before the results:

Structure (SMILES)	(%) inhibition of MIF nuclease activity (MIF)	(%) inhibition of cell death [1]
COc1ccc(CC[C@H]2OC(=O)[C@@H]3CCCCN3C(=O)C(=O)C(C)(C)COC(=O)C=CCCN(C)C(=O)[C@@H]3CCCN3C(=O)[C@H](COC(C)(C)C)N(C)C(=O)[C@@H](c3ccccc3)NC(=O)[C@H](C)N(C)C(=O)COc3cc(F)cc2c3)cc1OC (racemic) [compound 153]	71.7%	93.2%
COc1ccc(CC[C@H]2OC(=O)[C@@H]3CCCCN3C(=O)C(=O)C(C)(C)COC(=O)C=CCCN(C)C(=O)[C@@H]3CCCN3C(=O)[C@H](COC(C)(C)C)N(C)C(=O)[C@H](c3ccccc3)NC(=O)[C@H](C)N(C)C(=O)COc3cc(F)cc2c3)cc1OC (racemic) [compound 154]	38.2%	46.2%
COc1ccc(CC[C@H]2OC(=O)[C@@H]3CCCCN3C(=O)C(=O)C(C)(C)COC(=O)C=CCCN(C)C(=O)[C@H](Cc3ccccc3)NC(=O)[C@H](COC(C)(C)C)N(C)C(=O)[C@@H](CC(C)C)NC(=O)CN(C)C(=O)COc3cccc2c3)cc1OC [compound 8]	31.3%	61.6%
COc1ccc(CC[C@H]2OC(=O)[C@@H]3CCCCN3C(=O)C(=O)C(C)(C)COC(=O)C=CCCN(C)C(=O)[C@@H](Cc3ccccc3)NC(=O)[C@H](COC(C)(C)C)N(C)C(=O)[C@@H](CC(C)C)NC(=O)CN(C)C(=O)COc3cccc2c3)cc1OC [compound 9]	16.5%	57.4%
COc1ccc(CC[C@H]2OC(=O)[C@@H]3CCCCN3C(=O)C(=O)C(C)(C)COC(=O)C=CCCN(C)C(=O)[C@H](Cc3ccc(F)cc3)NC(=O)[C@H](COC(C)(C)C)N(C)C(=O)[C@@H](CC(C)C)NC(=O)CN(C)C(=O)COc3cccc2c3)cc1OC [compound 10]	56.8%	57.2%
COc1ccc(CC[C@H]2OC(=O)[C@@H]3CCCCN3C(=O)C(=O)C(C)(C)COC(=O)C=CCCN(C)C(=O)[C@@H]3CCCN3C(=O)[C@H](COC(C)(C)C)N(C)C(=O)[C@@H](CC(C)C)NC(=O)CN(C)C(=O)COc3cccc2c3)cc1OC [compound 11]	25.6%	48.9%
COc1ccc(CC[C@H]2OC(=O)[C@@H]3CCCCN3C(=O)C(=O)C(C)(C)COC(=O)C=CCCN(C)C(=O)[C@H](Cc3ccc4ccccc4c3)NC(=O)[C@H](COC(C)(C)C)N(C)C(=O)[C@@H](CC(C)C)NC(=O)CN(C)C(=O)COc3cccc2c3)cc1OC [compound 13]	21.9%	46.7%
COc1ccc(CC[C@H]2OC(=O)[C@@H]3CCCCN3C(=O)C(=O)C(C)(C)COC(=O)C=CCCN(C)C(=O)C(c3ccccc3)NC(=O)[C@H](COC(C)(C)C)N(C)C(=O)[C@@H](CC(C)C)NC(=O)CN(C)C(=O)COc3cccc2c3)cc1OC (stereo partly drawn) [compound 15]	8.7%	53.4%
COc1ccc(CC[C@H]2OC(=O)[C@@H]3CCCCN3C(=O)C(=O)C(C)(C)COC(=O)C=CCCN(C)C(=O)[C@H](C)NC(=O)[C@H](COC(C)(C)C)N(C)C(=O)[C@H](Cc3ccc4ccccc4c3)NC(=O)[C@H](C)N(C)C(=O)COc3cccc2c3)cc1OC [compound 17]	63.7%	78.3%
COc1ccc(CC[C@H]2OC(=O)[C@@H]3CCCCN3C(=O)C(=O)C(C)(C)COC(=O)C=CCCN(C)C(=O)[C@@H](C)NC(=O)[C@H](COC(C)(C)C)N(C)C(=O)[C@H](Cc3ccc4ccccc4c3)NC(=O)[C@H](C)N(C)C(=O)COc3cccc2c3)cc1OC [compound 18]	65.0%	78.4%
COc1ccc(CC[C@H]2OC(=O)[C@@H]3CCCCN3C(=O)C(=O)C(C)(C)COC(=O)C=CCCN(C)C(=O)[C@@H]3CCCN3C(=O)[C@H](COC(=O)CCC(=O)OCCOCCOCCOCCNC(=O)CCCCC3SC[C@H]4NC(=O)N[C@@H]34)N(C)C(=O)C(c3ccccc3)NC(=O)[C@H](C)N(C)C(=O)COc3cccc2c3)cc1OC (stereo partly drawn) [compound 130]		48.2%
